According to ChEMBL document CHEMBL1201862, “PubChem BioAssay data set” (2004):
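96-well plates; 48 h exposure; 5 concentrations. Endpoints by linear interpolation between flanking doses. Not reached: highest tested concentration assigned. Here, GI50 denotes the concentration required for 50% inhibition of growth.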 Active and inactive are the calls of the source. Cut-off read from the data, not from the text of the source: active = GI50 up to about 1.1 µM and inactive = higher.

Experiments:
Assay in all cases: growth of human tumour cells (NCI), 48 h
MDA-MB-435 = test system: MDA-MB-435
HL-60 = test system: HL-60
SK-MEL-5 = test system: SK-MEL-5
A549 = test system: A549
UO-31 = test system: UO-31
U-251 = test system: U-251
OVCAR-4 = test system: OVCAR-4
BT-549 = test system: BT-549
IGROV-1 = test system: IGROV-1
MOLT-4 = test system: MOLT-4
RPMI-8226 = test system: RPMI-8226
CAKI-1 = test system: CAKI-1
SF-539 = test system: SF-539
UACC-62 = test system: UACC-62
OVCAR-3 = test system: OVCAR-3
A498 = test system: A498
EKVX = test system: EKVX
UACC-257 = test system: UACC-257
SNB-19 = test system: SNB-19

Row | SMILES | GI50 (MDA-MB-435) | GI50 (HL-60) | GI50 (SK-MEL-5) | GI50 (A549) | GI50 (UO-31) | GI50 (U-251) | GI50 (OVCAR-4) | GI50 (BT-549) | GI50 (IGROV-1) | GI50 (MOLT-4) | GI50 (RPMI-8226) | GI50 (CAKI-1) | GI50 (SF-539) | GI50 (UACC-62) | GI50 (OVCAR-3) | GI50 (A498) | GI50 (EKVX) | GI50 (UACC-257) | GI50 (SNB-19)
1 | COc1ccc(CNc2nc3ccccc3nc2-c2cccs2)cc1 | 27.4 µM (inactive) | 61.7 µM (inactive) | 23.8 µM (inactive) | 33.1 µM (inactive) | 15.4 µM (inactive) | 28.8 µM (inactive) | 29.9 µM (inactive) | 22.1 µM (inactive) | 68.9 µM (inactive) | 5.31 µM (inactive) | 21.5 µM (inactive) | 15.1 µM (inactive) | > 100 µM (inactive) | 38.4 µM (inactive) | 37.4 µM (inactive) | 29.4 µM (inactive) | 97.9 µM (inactive) | 31.2 µM (inactive) | –
2 | COc1cccc(C2SCC(=O)N2c2ccc(-n3c(-c4ccccc4)nc4ccccc4c3=O)cc2)c1OC (stereo not given) | > 100 µM (inactive) | > 100 µM (inactive) | > 100 µM (inactive) | > 100 µM (inactive) | > 43.7 µM (inactive) | > 100 µM (inactive) | > 100 µM (inactive) | > 100 µM (inactive) | > 100 µM (inactive) | > 100 µM (inactive) | > 100 µM (inactive) | > 100 µM (inactive) | > 100 µM (inactive) | > 38.5 µM (inactive) | > 88.7 µM (inactive) | > 100 µM (inactive) | > 100 µM (inactive) | > 100 µM (inactive) | > 100 µM (inactive)
3 | CN(C)Cc1cc(C(=O)/C=C/c2cccc(Cl)c2)cc(CN(C)C)c1O | 3.48 µM (inactive) | 1.69 µM (inactive) | 2.41 µM (inactive) | 11.8 µM (inactive) | 5.78 µM (inactive) | 2.74 µM (inactive) | – | 9.64 µM (inactive) | 3.27 µM (inactive) | 3.43 µM (inactive) | 2.69 µM (inactive) | 1.68 µM (inactive) | 6.14 µM (inactive) | 6.56 µM (inactive) | 2.67 µM (inactive) | 3.22 µM (inactive) | 7.03 µM (inactive) | 5.56 µM (inactive) | 24.5 µM (inactive)
4 | CC(NNC(=O)c1cc[n+]([BH2-]C#N)cc1)c1ccccc1 (stereo not given) | > 100 µM (inactive) | > 100 µM (inactive) | > 100 µM (inactive) | > 100 µM (inactive) | > 100 µM (inactive) | > 100 µM (inactive) | > 100 µM (inactive) | > 100 µM (inactive) | > 100 µM (inactive) | > 100 µM (inactive) | > 100 µM (inactive) | > 100 µM (inactive) | > 100 µM (inactive) | > 100 µM (inactive) | > 100 µM (inactive) | > 100 µM (inactive) | > 100 µM (inactive) | > 100 µM (inactive) | > 100 µM (inactive)
5 | COc1ccccc1NC(=S)N/N=C/c1ccccn1 | 1.61 µM (inactive) | 0.0214 µM (active) | 0.252 µM (active) | 0.564 µM (active) | 0.296 µM (active) | 0.12 µM (active) | 0.619 µM (active) | 1.77 µM (inactive) | – | 0.0115 µM (active) | 0.0658 µM (active) | 0.0817 µM (active) | 0.91 µM (active) | 0.466 µM (active) | < 0.015 µM (active) | 0.255 µM (active) | 0.293 µM (active) | < 0.0318 µM (active) | 4.17 µM (inactive)
6 | O=C(OC1=CCN(Br)C1=O)C1=C(O)C(=O)N(Br)C1 | 33.1 µM (inactive) | 24.5 µM (inactive) | 17.2 µM (inactive) | 42.9 µM (inactive) | 45.4 µM (inactive) | 22.5 µM (inactive) | 30 µM (inactive) | 18.2 µM (inactive) | 39.1 µM (inactive) | 22.8 µM (inactive) | 24.4 µM (inactive) | 58.7 µM (inactive) | – | 18.1 µM (inactive) | 20.8 µM (inactive) | > 100 µM (inactive) | 25.1 µM (inactive) | 26.9 µM (inactive) | 20.2 µM (inactive)
7 | COC(=O)[C@@H](NC(=O)N(Cc1ccccc1)C[C@H](CC(C)C)NC(=O)[C@@H](NC(=O)OC(C)(C)C)C(C)C)C(C)C | > 100 µM (inactive) | > 100 µM (inactive) | > 100 µM (inactive) | > 100 µM (inactive) | > 100 µM (inactive) | > 100 µM (inactive) | > 100 µM (inactive) | > 100 µM (inactive) | – | > 100 µM (inactive) | > 100 µM (inactive) | > 100 µM (inactive) | > 100 µM (inactive) | > 100 µM (inactive) | > 100 µM (inactive) | > 100 µM (inactive) | > 100 µM (inactive) | > 100 µM (inactive) | > 100 µM (inactive)
8 | OCC1NC(COC2OC(CO)C(O)C(O)C2O)C(O)C(O)C1O (stereo not given) | > 100 µM (inactive) | > 100 µM (inactive) | > 100 µM (inactive) | > 100 µM (inactive) | > 100 µM (inactive) | > 100 µM (inactive) | > 100 µM (inactive) | > 100 µM (inactive) | > 100 µM (inactive) | > 100 µM (inactive) | > 100 µM (inactive) | > 100 µM (inactive) | > 100 µM (inactive) | > 100 µM (inactive) | > 100 µM (inactive) | > 100 µM (inactive) | – | > 100 µM (inactive) | > 100 µM (inactive)
9 | Oc1cc(O)c2c(c1)OC(c1ccc(O)c(O)c1)C(O)C2c1c(O)cc(O)c2c1OC(c1ccc(O)c(O)c1)C(O)C2 (stereo not given) | > 100 µM (inactive) | 0.0323 µM (active) | > 100 µM (inactive) | > 100 µM (inactive) | > 100 µM (inactive) | > 100 µM (inactive) | > 100 µM (inactive) | > 100 µM (inactive) | > 100 µM (inactive) | – | > 100 µM (inactive) | 25.4 µM (inactive) | > 100 µM (inactive) | > 100 µM (inactive) | > 100 µM (inactive) | 45.5 µM (inactive) | > 100 µM (inactive) | > 100 µM (inactive) | > 100 µM (inactive)
10 | NC(C(=O)O)C(O)c1c[nH]cn1 (stereo not given) | > 100 µM (inactive) | > 100 µM (inactive) | > 100 µM (inactive) | > 100 µM (inactive) | – | > 100 µM (inactive) | > 100 µM (inactive) | > 100 µM (inactive) | > 100 µM (inactive) | > 100 µM (inactive) | > 100 µM (inactive) | > 100 µM (inactive) | > 100 µM (inactive) | > 100 µM (inactive) | > 100 µM (inactive) | > 100 µM (inactive) | > 100 µM (inactive) | > 100 µM (inactive) | > 100 µM (inactive)
11 | CCN(CC)c1ccc2cc(C(N)=O)/c(=N/c3ccc(F)cc3)oc2c1 | > 100 µM (inactive) | > 100 µM (inactive) | > 100 µM (inactive) | 91 µM (inactive) | 26.9 µM (inactive) | 38.5 µM (inactive) | 41.3 µM (inactive) | > 100 µM (inactive) | 26.7 µM (inactive) | > 100 µM (inactive) | > 100 µM (inactive) | 45.9 µM (inactive) | – | 26.4 µM (inactive) | > 100 µM (inactive) | 39.4 µM (inactive) | 81.5 µM (inactive) | > 100 µM (inactive) | 25.5 µM (inactive)
